From ChEMBL document CHEMBL1671699, “Steady-state intrapulmonary pharmacokinetics and pharmacodynamics of posaconazole in lung transplant recipients” (Antimicrob Agents Chemother, 2010)

Experiments:
[1] = Ratio of fCmax in lung transplant recipient plasma after 12 hrs to MIC90 for Aspergillus spp.; assay type: functional
[2] = T>MIC90 for Aspergillus spp. infected lung transplant recipient alveolar cell at 400 mg, po every 12 hrs by LS/MS analysis; assay type: functional, Pneumocyte
[3] = Cmin in lung transplant recipient alveolar cell at 400 mg, po every 12 hrs after 12 hrs by LC/MS analysis; assay type: ADME, organism-based, Pneumocyte; settings: human, alveolar cells, read-out: Cmin
[4] = Ratio of Cmax in lung transplant recipient alveolar cell after 12 hrs to MIC90 for Aspergillus spp.; assay type: functional, Pneumocyte
[5] = Tmax in lung transplant recipient alveolar cell at 400 mg, po every 12 hrs after 12 hrs by LC/MS analysis; assay type: ADME, organism-based, Pneumocyte; settings: human, alveolar cells
[6] = Cmax in lung transplant recipient alveolar cell at 400 mg, po every 12 hrs after 12 hrs by LC/MS analysis; assay type: ADME, organism-based, Pneumocyte; design: dose 400 mg, route oral; settings: human, alveolar cells
[7] = Ratio of AUC (0 to 24 hrs) in lung transplant recipient alveolar cell to MIC90 for Aspergillus spp.; assay type: functional, Pneumocyte
[8] = AUC (0 to 24 hrs) in lung transplant recipient alveolar cell at 400 mg, po every 12 hrs by LC/MS analysis; assay type: ADME, organism-based, Pneumocyte; design: time < 24 hr, dose 400 mg, route oral; settings: human, in vivo
[9] = Ratio of AUC (0 to 12 hrs) in lung transplant recipient alveolar cell to MIC90 for Aspergillus spp.; assay type: functional, Pneumocyte
[10] = AUC (0 to 12 hrs) in lung transplant recipient alveolar cell at 400 mg, po every 12 hrs by LC/MS analysis; assay type: ADME, organism-based, Pneumocyte; design: time < 12 hr, dose 400 mg, route oral; settings: human, in vivo
[11] = T>MIC90 for Aspergillus spp. infected lung transplant recipient epithelial lining fluid at 400 mg, po every 12 hrs by LS/MS analysis; assay type: functional
[12] = Ratio of Cmax in lung transplant recipient epithelial lining fluid after 12 hrs to MIC90 for Aspergillus spp.; assay type: functional
[13] = Tmax in lung transplant recipient epithelial lining fluid at 400 mg, po every 12 hrs after 12 hrs by LC/MS analysis; assay type: ADME, organism-based; settings: human
[14] = Ratio of AUC (0 to 24 hrs) in lung transplant recipient epithelial lining fluid to MIC90 for Aspergillus spp.; assay type: functional
[15] = Cmax in lung transplant recipient epithelial lining fluid at 400 mg, po every 12 hrs after 12 hrs by LC/MS analysis; assay type: ADME, organism-based; design: dose 400 mg, route oral; settings: human
[16] = Ratio of AUC (0 to 12 hrs) in lung transplant recipient epithelial lining fluid to MIC90 for Aspergillus spp.; assay type: functional
[17] = AUC (0 to 24 hrs) in lung transplant recipient epithelial lining fluid at 400 mg, po every 12 hrs by LC/MS analysis; assay type: ADME, organism-based; design: time < 24 hr, dose 400 mg, route oral; settings: human, in vivo
[18] = AUC (0 to 12 hrs) in lung transplant recipient epithelial lining fluid at 400 mg, po every 12 hrs by LC/MS analysis; assay type: ADME, organism-based; design: time < 12 hr, dose 400 mg, route oral; settings: human, in vivo
[19] = T>MIC90 for Aspergillus spp. infected lung transplant recipient plasma at 400 mg, po every 12 hrs by LS/MS analysis; assay type: functional
[20] = Cmin in lung transplant recipient plasma at 400 mg, po every 12 hrs after 12 hrs by LC/MS analysis; assay type: ADME, organism-based; settings: human, read-out: Cmin
[21] = Ratio of Cmax in lung transplant recipient plasma after 12 hrs to MIC90 for Aspergillus spp.; assay type: functional
[22] = Tmax in lung transplant recipient plasma at 400 mg, po every 12 hrs after 12 hrs by LC/MS analysis; assay type: ADME, organism-based; settings: human
[23] = Cmax in lung transplant recipient plasma at 400 mg, po every 12 hrs after 12 hrs by LC/MS analysis; assay type: ADME, organism-based; design: dose 400 mg, route oral; settings: human
[24] = Ratio of AUC (0 to 24 hrs) in lung transplant recipient plasma to MIC90 for Aspergillus spp.; assay type: functional
[25] = system: Plasma; assay: AUC (0 to 24 hrs) in lung transplant recipient plasma at 400 mg, po every 12 hrs by LC/MS analysis; assay type: ADME, organism-based; design: dose 400 mg, time < 24 hr, route oral; settings: human, in vivo
[26] = Ratio of AUC (0 to 12 hrs) in lung transplant recipient plasma to MIC90 for Aspergillus spp.; assay type: functional
[27] = system: Plasma; assay: AUC (0 to 12 hrs) in lung transplant recipient plasma at 400 mg, po every 12 hrs by LC/MS analysis; assay type: ADME, organism-based; design: dose 400 mg, time < 12 hr, route oral; settings: human, in vivo
[28] = Ratio of drug level in lung transplant human recipient alveolar cell to plasma at 400 mg, po every 12 hrs after 24 hrs by LS/MS analysis; assay type: ADME, organism-based, Pneumocyte; settings: other tissue
[29] = Ratio of drug level in lung transplant human recipient alveolar cell to plasma at 400 mg, po every 12 hrs after 12 hrs by LS/MS analysis; assay type: ADME, organism-based, Pneumocyte; settings: other tissue
[30] = Ratio of drug level in lung transplant human recipient alveolar cell to plasma at 400 mg, po every 12 hrs after 8 hrs by LS/MS analysis; assay type: ADME, organism-based, Pneumocyte; settings: other tissue
[31] = Ratio of drug level in lung transplant human recipient alveolar cell to plasma at 400 mg, po every 12 hrs after 5 hrs by LS/MS analysis; assay type: ADME, organism-based, Pneumocyte; settings: other tissue
[32] = Ratio of drug level in lung transplant human recipient alveolar cell to plasma at 400 mg, po every 12 hrs after 3 hrs by LS/MS analysis; assay type: ADME, organism-based, Pneumocyte; settings: other tissue
[33] = Ratio of drug level in lung transplant human recipient epithelial lining fluid to plasma at 400 mg, po every 12 hrs after 24 hrs by LS/MS analysis; assay type: ADME, organism-based
[34] = Ratio of drug level in lung transplant human recipient epithelial lining fluid to plasma at 400 mg, po every 12 hrs after 12 hrs by LS/MS analysis; assay type: ADME, organism-based
[35] = Ratio of drug level in lung transplant human recipient epithelial lining fluid to plasma at 400 mg, po every 12 hrs after 8 hrs by LS/MS analysis; assay type: ADME, organism-based
[36] = Ratio of drug level in lung transplant human recipient epithelial lining fluid to plasma at 400 mg, po every 12 hrs after 5 hrs by LS/MS analysis; assay type: ADME, organism-based
[37] = Ratio of drug level in lung transplant human recipient epithelial lining fluid to plasma at 400 mg, po every 12 hrs after 3 hrs by LS/MS analysis; assay type: ADME, organism-based
[38] = Drug level in lung transplant recipient alveolar cell at 400 mg, po every 12 hrs after 24 hrs by LS/MS analysis; assay type: ADME, organism-based, Pneumocyte; settings: human, alveolar cells, read-out: Drug uptake
[39] = Drug level in lung transplant recipient alveolar cell at 400 mg, po every 12 hrs after 12 hrs by LS/MS analysis; assay type: ADME, organism-based, Pneumocyte; settings: human, alveolar cells, read-out: Drug uptake
[40] = Drug level in lung transplant recipient alveolar cell at 400 mg, po every 12 hrs after 8 hrs by LS/MS analysis; assay type: ADME, organism-based, Pneumocyte; settings: human, alveolar cells, read-out: Drug uptake
[41] = Drug level in lung transplant recipient alveolar cell at 400 mg, po every 12 hrs after 5 hrs by LS/MS analysis; assay type: ADME, organism-based, Pneumocyte; settings: human, alveolar cells, read-out: Drug uptake
[42] = Drug level in lung transplant recipient alveolar cell at 400 mg, po every 12 hrs after 3 hrs by LS/MS analysis; assay type: ADME, organism-based, Pneumocyte; settings: human, alveolar cells, read-out: Drug uptake
[43] = Drug level in lung transplant recipient epithelial lining fluid at 400 mg, po every 12 hrs after 24 hrs by LS/MS analysis; assay type: ADME, organism-based; settings: human, read-out: Drug uptake
[44] = Drug level in lung transplant recipient epithelial lining fluid at 400 mg, po every 12 hrs after 12 hrs by LS/MS analysis; assay type: ADME, organism-based; settings: human, read-out: Drug uptake
[45] = Drug level in lung transplant recipient epithelial lining fluid at 400 mg, po every 12 hrs after 8 hrs by LS/MS analysis; assay type: ADME, organism-based; settings: human, read-out: Drug uptake
[46] = Drug level in lung transplant recipient epithelial lining fluid at 400 mg, po every 12 hrs after 5 hrs by LS/MS analysis; assay type: ADME, organism-based; settings: human, read-out: Drug uptake
[47] = Drug level in lung transplant recipient epithelial lining fluid at 400 mg, po every 12 hrs after 3 hrs by LS/MS analysis; assay type: ADME, organism-based; settings: human, read-out: Drug uptake
[48] = Drug level in lung transplant recipient plasma at 400 mg, po every 12 hrs after 24 hrs by LS/MS analysis; assay type: ADME, organism-based; settings: human, read-out: Drug uptake
[49] = Drug level in lung transplant recipient plasma at 400 mg, po every 12 hrs after 12 hrs by LS/MS analysis; assay type: ADME, organism-based; settings: human, read-out: Drug uptake
[50] = Drug level in lung transplant recipient plasma at 400 mg, po every 12 hrs after 8 hrs by LS/MS analysis; assay type: ADME, organism-based; settings: human, read-out: Drug uptake
[51] = Drug level in lung transplant recipient plasma at 400 mg, po every 12 hrs after 5 hrs by LS/MS analysis; assay type: ADME, organism-based; settings: human, read-out: Drug uptake
[52] = Drug level in lung transplant recipient plasma at 400 mg, po every 12 hrs after 3 hrs by LS/MS analysis; assay type: ADME, organism-based; settings: human, read-out: Drug uptake
[53] = Ratio of fAUC (0 to 12 hrs) in lung transplant recipient plasma to MIC90 for Aspergillus spp.; assay type: functional
[54] = Ratio of fAUC (0 to 24 hrs) in lung transplant recipient plasma to MIC90 for Aspergillus spp.; assay type: functional
[55] = Protein binding in human plasma at 400 mg, po BID by LS/MS analysis; assay type: ADME, organism-based; settings: read-out: PPB

With CC[C@@H]([C@H](C)O)n1ncn(-c2ccc(N3CCN(c4ccc(OC[C@@H]5CO[C@@](Cn6cncn6)(c6ccc(F)cc6F)C5)cc4)CC3)cc2)c1=O [POSACONAZOLE] the Ratio [1] was 0.04, the “T>MIC90” value [2] was 24 h and the concentration at 12 h [3] was 31300 ng/mL. For the same compound, the Ratio [4] was 110.8, the Tmax [5] was 3.2 h and the Cmax [6] was 55400 ng/mL. The Ratio [7] was 2324, the AUC [8] was 1060 µg/h/mL and the Ratio [9] was 1162. For the same compound, the AUC [10] was 530.2 µg/h/mL, the “T>MIC90” value [11] was 24 h and the Ratio [12] was 2.6. It also gave a Tmax [13] of 5.3 h, a Ratio [14] of 36.84 and a Cmax [15] of 1300 ng/mL. It also gave a Ratio [16] of 18.42, an AUC [17] of 22.42 µg/h/mL and an AUC [18] of 11.21 µg/h/mL. The “T>MIC90” value [19] was 24 h, the concentration at 12 h [20] was 810 ng/mL and the Ratio [21] was 2.5. The Tmax [22] was 2.8 h, the Cmax [23] was 1300 ng/mL and the Ratio [24] was 39.9. It also gave an AUC [25] of 21.98 µg/h/mL, a Ratio [26] of 19.95 and an AUC [27] of 10.99 µg/h/mL. The Ratio [28] was 56.4, the Ratio [29] was 53.3 and the Ratio [30] was 63.6. For the same compound, the Ratio [31] was 27.3, the Ratio [32] was 40.7 and the Kp at 24 h [33] was 0.68. For the same compound, the Kp at 12 h [34] was 1, the Kp at 8 h [35] was 0.9 and the Kp at 5 h [36] was 0.57. For the same compound, the Kp at 3 h [37] was 0.94, the concentration at 24 h [38] was 49600 ng/mL and the concentration at 12 h [39] was 36800 ng/mL. The concentration at 8 h [40] was 54700 ng/mL, the concentration at 5 h [41] was 31300 ng/mL and the concentration at 3 h [42] was 55400 ng/mL. The concentration at 24 h [43] was 500 ng/mL, the concentration at 12 h [44] was 1200 ng/mL and the concentration at 8 h [45] was 1000 ng/mL. The concentration at 5 h [46] was 1300 ng/mL, the concentration at 3 h [47] was 1100 ng/mL and the concentration at 24 h [48] was 740 ng/mL. It also gave a concentration at 12 h [49] of 930 ng/mL, a concentration at 8 h [50] of 810 ng/mL and a concentration at 5 h [51] of 1100 ng/mL. The concentration at 3 h [52] was 1300 ng/mL, the Ratio [53] was 0.33 and the Ratio [54] was 0.6. It also gave a fraction unbound [55] of under 0.02.
